Patent publication US20080090835A1, “Polymorphic forms of ziprasidone HCl and processes for their preparation” (Teva Pharmaceuticals USA, Inc. for Barbados, priority 2003, published 2008)
Where a name gives a salt, the structure may show the parent alone.

What was measured:
Format in all cases: physicochemical
Solubility in water = assay: Solubility in water
[1] = Heating at 80-105° C. overnight: crystal form and water content; conditions: for Crystal form after heating at 80-105° C. overnight / Crystal form after heating at elevated temperature: HCl; for Crystal form after heating at elevated temperature: about 80° C. overnight
Description: (§1) Form A is characterized by an X-Ray diffraction pattern having peaks at about 10.9, 17.4 19.1, 25.0 and 26.0±0.2 degrees 2 theta.
(§2) In another aspect, the present invention provides for ziprasidone HCl Form F. Ziprasidone HCl Form F is characterized by an XRD pattern (FIG. 7) with peaks at 11.0, 18.1, 19.5, 21.9±0.2 degrees 2 theta. Ziprasidone HCl Form F is further characterized by XRD peaks at 14.9, 24.9, 26.1±0.2 degrees 2 theta. […] The water content and the weight loss by TGA of the sample may range of about 2.6% to about 16% by weight.
(§3) X-Ray powder diffraction data were obtained using by method known in the art using a SCINTAG powder X-Ray diffractometer model X'TRA equipped with a solid state detector. Copper radiation of 1.5418 Å was used. A round aluminum sample holder with round zero background quartz plate, with cavity of 25(diameter)*0.5(dept) mm.
(§4) The water content of ziprasidone HCl was measured by the methods known in the art like Karl Fisher or thermogravimetric analysis (TGA). In the case of ziprasidone HCl F, the TGA and Karl Fisher analysis matched, while for ziprasidone HCl form E the TGA analysis exceeded by far that of Karl Fisher, as an indication that a significant quantity of solvent is present.

[2] = Equilibration at different relative humidities for 22 days: water uptake (TGA weight loss) and crystal form; conditions: for TGA weight loss (%) (water uptake): HCl
Description: as §1, §2, §3
TGA analysis was done using a Mettler M3 meter. The weight of the samples was about 10 mg; the samples were scanned at a rate of 10° C./min from 25° C. to 200° C. The oven was constantly purged with nitrogen gas at a flow rate of 40 ml/min. Standard 70 μl alumina crucibles covered by lids with 1 hole were used.
as §4

[3] = Solubility in methanol (noted for Karl Fisher water determination)
Description: Ziprasidone HCl Form G may have a water content of about 5% to about 12%. Ziprasidone HCl Form G may be a dihydrate (about 7.4% stoichiometric value for the dihydrate) or a trihydrate (about 10.7% stoichiometric value for the trihydrate).

Solubility in water (Solubility in water) | Crystal form after heating at 80-105° C. overnight [1] | Crystal form after heating at elevated temperature [1] | % water content ([1]; after heating at 80-105° C. overnight) [%] | Water content after heating ([1]; heated overnight at about 80° C.) [%] | TGA weight loss (%) (water uptake) ([2]; RH 0%, 22 days) | TGA weight loss (%) (water uptake) ([2]; RH 20%, 22 days) | TGA weight loss (%) (water uptake) ([2]; RH 40%, 22 days) | TGA weight loss (%) (water uptake) ([2]; RH 60%, 22 days) | TGA weight loss (%) (water uptake) ([2]; RH 80%, 22 days) | TGA weight loss (%) (water uptake) ([2]; RH 100%, 22 days) | Crystal form after equilibration at relative humidity of about 0% to about 100% ([2]; RH about 0% to about 100%) | Solubility in methanol [3] | Crystal form ([2]; RH 0%, 22 days) | Crystal form ([2]; RH 80%, 22 days) | Crystal form ([2]; RH 100%, 22 days) | Crystal form after exposure to relative humidity of about 20% to about 60% ([2]; RH about 20% to about 60%, about 22 days) | Crystal form after exposure to low relative humidity ([2]; about 10% to about 0% relative humidity, 22 days) | Crystal form after exposure to high relative humidity ([2]; high relative humidity, about 22 days) | SMILES
low solubility | – | – | – | – | – | – | – | – | – | – | – | – | – | – | – | – | – | – | O=C1Cc2cc(CCN3CCN(c4nsc5ccccc45)CC3)c(Cl)cc2N1 [ziprasidone HCl]
– | Form F | retains its original crystal form | 0.8 | 0.8 | 2.6 | 4.2 | 4.0 | 4.5 | 7.7 | 15.8 | retains its crystal form | – | – | – | – | – | – | – | O=C1Cc2cc(CCN3CCN(c4nsc5ccccc45)CC3)c(Cl)cc2N1 [ziprasidone HCl form F, ziprasidone HCl]
– | – | – | – | – | – | – | – | – | – | – | – | sparingly soluble | – | – | – | – | – | – | O=C1Cc2cc(CCN3CCN(c4nsc5ccccc45)CC3)c(Cl)cc2N1 [Ziprasidone HCl Form G, ziprasidone HCl]
– | Amorphous + form F | transforms to amorphous form | – | – | 5.3 | 7.2 | 4.8 | 5.0 | 9.2 | 51.3 | – | – | Amorphous | Monohydrate + | Monohydrate + | transforms to Form A | transforms to amorphous form | transforms to form M | O=C1Cc2cc(CCN3CCN(c4nsc5ccccc45)CC3)c(Cl)cc2N1 [ziprasidone HCl form E, ziprasidone HCl]
